The values below come from patent publication US11096917B2, “Composition for preventing or treating muscle diseases, comprising suberic acid or pharmaceutically acceptable salt thereof as active ingredient” (INDUSTRY-ACADEMIC COOPERATION FOUNDATION, YONSEI UNIVERSITY, priority 2017, dated 2021).

Assay [1] concerns MuRF1. The assay is described as follows: RT-PCR of MuRF1 gene expression in dexamethasone-treated myotubes. The following applies: 100 μM suberic acid + 50 μM dexamethasone, 2 days, vs dexamethasone alone; FIG. 2B. The format is cell-based, mouse. The protocol: (§1) A mouse myoblast cell line (C2C12 cells) was purchased from the American Type Culture Collection (ATCC, Manassas, Va., USA), and the purchased cells were cultured at 37° C. in a 5% CO2 incubator using a 10% fetal bovine serum medium (Gibco-BRL). When the cultured cells reached 80% confluence, the cells were differentiated into myotubes using a 2% horse serum medium (Gibco-BRL).
(§2) From the fourth day of differentiation, the cells were treated with 50 μM dexamethasone (dexa; Sigma) and 100 μM suberic acid (CAS Number 505-48-6, Sigma) for 2 days.
(§3) The cells were treated with 50 μM dexamethasone (dexa; Sigma) in the same manner as in Example 1.
(§4) 1×10^7 mouse myoblast cells were added to 334 μL of a TRIzol solution, and pulverized. Thereafter, the resulting cell solution was centrifuged at 4° C. and 12,000× g for 10 minutes. The supernatant was transferred to a new tube, and 67 μL of chloroform was added thereto, and vortexed. The supernatant was again transferred to a new tube, and isopropanol was added so that a ratio of the supernatant and isopropanol was 1:1. […] A concentration of the extracted RNA sample was measured at wavelengths of 260 nm and 280 nm using a UV/VIS spectrophotometer (Beckman coulter, DU730), and the integrity of the RNA sample was determined by means of agarose gel electrophoresis. […]

Assay [2] concerns p-4E-BP1. Briefly: Western blotting of p-4E-BP1 in dexamethasone-treated myotubes. The format is cell-based, mouse. The following applies: 100 μM suberic acid + 50 μM dexamethasone, 2 days, vs dexamethasone alone; FIG. 2A. The protocol:
as §1, §2, §3
(§5) To perform Western blotting in the cells, 500 μL of a lysis buffer, which included 100 mM Tris-HCl (pH 7.4), 5 mM EDTA, 50 mM sodium pyrophosphate, 50 mM NaF, 100 mM orthovanadate, 1% Triton X-100, 1 mM phenylmethanesulfonyl fluoride, 2 μg/mL aprotinin, 1 μg/mL pepstatin A, and 1 μg/mL leupeptin, was added to each well from which a medium was removed, and the cell suspension was harvested, and then centrifuged at 4° C. and 1,300×g for 20 minutes. Thereafter, the middle layer was taken, and proteins were quantified according to the Bradford method (Bio-Rad). […] The bands visualized on the X-ray film were scanned, and then quantified using Quantity One analysis software (Bio-Rad).

The test system of assay [3] is mouse myoblast cell line (C2C12 cells). The assay is described as follows: Giemsa-Wright staining; thickness, length and fusion index of myotubes reduced by dexamethasone. Format: cell-based. The note with it: 100 μM suberic acid + 50 μM dexamethasone, 2 days, vs dexamethasone alone. On the procedure: as §1, §2, §3
The myotubes prepared in Example 1 were washed twice with phosphate-buffered saline (PBS), and then immobilized with 100% methanol for 10 minutes. When the immobilization was completed, the myotubes were air-dried at room temperature for 10 minutes, and then stained for 30 minutes by dropwise addition of a Giemsa-Wright staining solution (ASAN Pharmaceutical Co., Ltd., Seoul) which is used to specifically stain myotubes.
The myotubes thus stained were photographed at 100× and 40× magnifications using a fluorescence microscope (IX 71, Olympus), and then analyzed using Image J software (USA). Six regions in each well were randomly selected and photographed using a microscope. The thicknesses, lengths and fusion indexes of at least 100 myoblast cells in each well were analyzed (in triplicate/group).

Assay [4] relates to MaFbx/atrogin-1. Briefly: RT-PCR of MaFbx/atrogin-1 gene expression in dexamethasone-treated myotubes. The format is cell-based, mouse. The following applies: 100 μM suberic acid + 50 μM dexamethasone, 2 days, vs dexamethasone alone; FIG. 2B. On the procedure: as §1, §2, §3, §4
Assay [5] has as its system C57BL/6N mice. Briefly: Grip strength test in high-fat diet-induced muscle loss mice. The format is in vivo, mouse. The following applies: 0.2% suberic acid in high fat diet, 10 weeks, force (N) per weight (kg), vs high-fat diet mice; FIG. 3 (B). The source says: (§6) Twenty-four 5-week-old male C57BL/6N mice (Mating, Korea) were adapted to laboratory circumstances for a week while feeding a commercially available normal diet (rodent chow), and then assigned into three groups (a Chow group, a HFD group, and a suberic acid-treated group; n=8 mice per group) according to a randomized block design, and bred for 10 weeks. An obesity-inducing diet used in this experiment was a high fat diet (HFD: 40% fat calories, 17 g of lard+3% corn oil/100 g of diet), and a suberic acid-supplemented high fat diet (Suberic Acid) had the same compositions as the HFD, provided that the suberic acid-supplemented high fat diet included 0.2% suberic acid (Table 2). A normal diet group (Chow) took a commercially available rodent chow. The suberic acid was purchased from Sigma-Aldrich Corp.
To measure grip strength of the mice, at 10 weeks of breeding, the grip strength of the mice was measured using four limbs. A force (N) generated by a mouse gripping a wire grid was measured a total of five times using a grip strength meter (Daejong Instrument Industry Co., Ltd., Korea) equipped with a wire grid (20×10 cm), and an at least one-minute break between every measurement was provided. The experimental results were calculated by dividing the measured force (N) by the weight (kg) of the mouse. […]

The subject of assay [6] is p-p70S6K1. The assay is described as follows: Western blotting of p-p70S6K1 in dexamethasone-treated myotubes. The format is cell-based, mouse. The note with it: 100 μM suberic acid + 50 μM dexamethasone, 2 days, vs dexamethasone alone; FIG. 2A. On the procedure: as §1, §2, §3, §5
In assay [7] the test system is C57BL/6N mice. Briefly: H&E staining of muscle tissue, fiber diameter, in high-fat diet mice. The note with it: 0.2% suberic acid in high fat diet, 10 weeks, vs high-fat diet mice. Format: in vivo, mouse.
Source text: as §6
A muscle tissue was extracted from a mouse, immobilized with 10% formalin, stained with a Hematoxylin and Eosin (H&E) stain, and then submitted to the Korea CFC (Gyeonggi-do, Korea). […]
The statistical analysis of all data was carried out using a statistical package for the social sciences (SPSS version 21.0, IBM, Armonk, N.Y., USA) PC package. In this case, the analyzed numerical values are expressed as the mean±SEM, and a significant difference between the groups was verified using ANOVA.

On to `O=C(O)CCCCCCC(=O)O` [suberic acid], for which the “expression of MuRF1” value in assay [1] is recorded as “significantly decreased”. For the same compound, in assay [2], the “amount of p-4E-BP1 protein” value is listed as “significantly increased again”. The “increase in thickness (diameter) of the myotubes” value in assay [3] (FIG. 1B) came out at 58%. Also, in assay [3] (FIG. 1C), the “increase in fusion index of the myotubes” value is reported as 53%. Also, in assay [3] (FIG. 1D), the “increase in length of the myotubes” value stood at 100%. Moreover, in assay [4], the “expression of MaFbx/atrogin-1” value is given as “significantly decreased”. The “increase in grip strength of the mice” value in assay [5] is listed as “approximately 21%”. Moreover, the “amount of p-p70S6K protein” value in assay [6] is reported as “significantly increased again”. In addition, the “increase in fiber diameter of the rectus femoris” value in assay [7] (FIG. 4 (A)) is 10%. Moreover, the “increase in fiber diameter of the soleus” value in assay [7] (FIG. 4 (B)) is on record as 15%.
